Measured values taken from patent US20080070867A1, “2-Imidazolone and 2-Imidazolidinone Heterocyclic Inhibitors of Tyrosine Phosphatases” (Metabasis Therapeutics, Inc., priority 2005, published 2008).

These compounds were tested against T1, Human recombinant PTP-1B (Homo sapiens, UniProt P18031) (assay: Assay for PTP-1B Activity (pNPP substrate)). Details: human recombinant PTP-1B (1-321) GST fusion, 2 mM pNPP, pH 7.4, 30° C., 20 min; read-out: Activity Code (IC50 range).
T1 construct: Human recombinant PTP-1B, containing amino acids 1-321, fused to GST enzyme; GST (glutathione S-transferase)
T1 sequence (P18031 1-321): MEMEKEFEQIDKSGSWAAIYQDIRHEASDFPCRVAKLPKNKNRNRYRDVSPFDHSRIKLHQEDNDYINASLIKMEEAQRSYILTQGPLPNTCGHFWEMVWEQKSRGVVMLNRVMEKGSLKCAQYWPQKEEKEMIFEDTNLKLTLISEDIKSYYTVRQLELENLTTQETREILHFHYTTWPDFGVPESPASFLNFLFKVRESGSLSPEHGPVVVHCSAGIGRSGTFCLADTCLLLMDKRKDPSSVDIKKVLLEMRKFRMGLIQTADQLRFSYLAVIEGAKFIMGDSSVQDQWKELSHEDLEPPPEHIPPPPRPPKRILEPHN
Format: biochemical
In short: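 GST-fused human PTP-1B (aa 1-321) hydrolysed 2 mM pNPP in 50 mM HEPES pH 7.4, 100 mM NaCl, 2 mM EDTA, 3 mM DTT for 20 min at 30 °C, after a 2 min compound premix. K2CO3 stopped the reaction, with pNP read at 405 nm. Initial rate was plotted against inhibitor concentration.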
`O=c1n(Cc2ccccc2)ccn1Cc1ccc(C(F)(F)P(=O)(O)O)c(Br)c1` [Compound 71, {[4-(3-Benzyl-2-oxo-2,3-dihydro-imidazol-1-ylmethyl)-2-bromo-phenyl]-difluoro-methyl}-phosphonic acid] was tested, and the IC50 was 2500 to 25000 nM. Compound `CC(C)OC(=O)OC(C)OP(=O)(O)C(F)(F)c1ccc(Cn2c(-c3ccc(Cl)cc3)cn(Cc3ccccc3)c2=O)cc1Br` (stereo not shown) [Compound 72, ({4-[3-Benzyl-5-(4-chloro-phenyl)-2-oxo-2,3-dihydro-imidazol-1-ylmethyl]-2-bromo-phenyl}-difluoro-methyl)-phosphonic acid mono-(1-isopropoxy-carbonyloxy-ethyl) ester] has an IC50 of 2500 to 25000 nM. `CCOC(=O)C(C)(C)Oc1ccc(-c2cn(C3CC3)c(=O)n2Cc2ccc(C(F)(F)P(=O)(O)O)c(Br)c2)cc1` [Compound 73, 2-(4-{3-[3-Bromo-4-(difluoro-phosphono-methyl)-benzyl]-1-cyclopropyl-2-oxo-2,3-dihydro-1H-imidazol-4-yl}-phenoxy)-2-methyl-propionic acid ethyl ester] gave an IC50 of 100 to 249 nM. `CC(C)(Oc1ccc(-c2cn(C3CC3)c(=O)n2Cc2ccc(C(F)(F)P(=O)(O)O)c(Br)c2)cc1)C(=O)O` [Compound 74, 2-(4-{3-[3-Bromo-4-(difluoro-phosphono-methyl)-benzyl]-1-cyclopropyl-2-oxo-2,3-dihydro-1H-imidazol-4-yl}-phenoxy)-2-methyl-propionic acid] was tested, and the IC50 was < 99 nM. Compound `CCOC(=O)n1cc(-c2ccc(C#N)cc2)n(Cc2ccc(C(F)(F)P(=O)(O)O)c(Br)c2)c1=O` [Compound 75, 3-[3-Bromo-4-(difluoro-phosphono-methyl)-benzyl]-4-(4-cyano-phenyl)-2-oxo-2,3-dihydro-imidazole-1-carboxylic acid ethyl ester] has an IC50 of 100 to 249 nM. For `CC(C)(C)C(=O)OCOP(=O)(O)C(F)(F)c1ccc(Cn2c(-c3ccc(S(C)(=O)=O)cc3)cn(Cc3ccccc3)c2=O)cc1Br` [Compound 76, 2,2-Dimethyl-propionic acid ({4-[3-benzyl-5-(4-methanesulfonyl-phenyl)-2-oxo-2,3-dihydro-imidazol-1-ylmethyl]-2-bromo-phenyl}-difluoro-methyl)-hydroxy-phosphinoyloxymethyl ester], the IC50 was 250 to 2500 nM. Compound `CC(C)(C)C(=O)OCOC(=O)COc1ccc(-c2cn(C3CC3)c(=O)n2Cc2ccc(C(F)(F)P(=O)(O)OCOC(=O)C(C)(C)C)c(Br)c2)cc1` [Compound 77, 2,2-Dimethyl-propionic acid 2-{4-[3-(3-bromo-4-{[(2,2-dimethyl-propionyloxy-methoxy)-hydroxy-phosphoryl]-difluoro-methyl}-benzyl)-1-cyclopropyl-2-oxo-2,3-dihydro-1H-imidazol-4-yl]-phenoxy}-acetoxymethyl ester] has an IC50 of 250 to 2500 nM. With `N#Cc1ccc(-c2c[nH]c(=O)n2Cc2ccc(C(F)(F)P(=O)(O)O)c(Br)c2)cc1` [Compound 78, ({2-Bromo-4-[5-(4-cyano-phenyl)-2-oxo-2,3-dihydro-imidazol-1-ylmethyl]-phenyl}-difluoro-methyl)-phosphonic acid] the IC50 was 100 to 249 nM. `CC(C)OC(=O)OC(C)OP(=O)(O)C(F)(F)c1ccc(Cn2c(-c3ccc(S(C)(=O)=O)cc3)cn(Cc3ccccc3)c2=O)cc1Br` (stereo not shown) [Compound 79, ({4-[3-Benzyl-5-(4-methanesulfonyl-phenyl)-2-oxo-2,3-dihydro-imidazol-1-ylmethyl]-2-bromo-phenyl}-difluoro-methyl)-phosphonic acid mono-(1-isopropoxy-carbonyloxy-ethyl) ester] was tested, and the IC50 was 100 to 249 nM. Compound `Cn1cc(-c2ccc(C(=O)OCOC(=O)C(C)(C)C)cc2)n(Cc2ccc(C(F)(F)P(=O)(O)OCOC(=O)C(C)(C)C)c(Br)c2)c1=O` [Compound 80, 4-[3-(3-Bromo-4-{[(2,2-dimethyl-propionyloxy-methoxy)-hydroxy-phosphoryl]-difluoro-methyl}-benzyl)-1-methyl-2-oxo-2,3-dihydro-1H-imidazol-4-yl]-benzoic acid 2,2-dimethyl-propionyloxymethyl ester] has an IC50 of 2500 to 25000 nM. Work on `COC(=O)c1ccc(Cn2ccn(Cc3ccc(C(F)(F)P(=O)(O)O)c(Br)c3)c2=O)cc1` [Compound 81, 4-{3-[3-Bromo-4-(difluoro-phosphono-methyl)-benzyl]-2-oxo-2,3-dihydro-imidazol-1-ylmethyl}-benzoic acid methyl ester] yielded an IC50 of 250 to 2500 nM. In the case of `COC(=O)COc1ccc(Cn2ccn(Cc3ccc(C(F)(F)P(=O)(O)O)c(Br)c3)c2=O)cc1Cl` [Compound 82, (4-{3-[3-Bromo-4-(difluoro-phosphono-methyl)-benzyl]-2-oxo-2,3-dihydro-imidazol-1-ylmethyl}-2-chloro-phenoxy)-acetic acid methyl ester], the IC50 is reported as 250 to 2500 nM. For `O=C(O)COc1ccc(Cn2ccn(Cc3ccc(C(F)(F)P(=O)(O)O)c(Br)c3)c2=O)cc1Cl` [Compound 83, (4-{3-[3-Bromo-4-(difluoro-phosphono-methyl)-benzyl]-2-oxo-2,3-dihydro-imidazol-1-ylmethyl}-2-chloro-phenoxy)-acetic acid], the IC50 was 250 to 2500 nM. `CCCCCCCCCCCCCCCCOCCCOP(=O)(O)C(F)(F)c1ccc(Cn2c(-c3ccc(S(C)(=O)=O)cc3)c[nH]c2=O)cc1Br` [Compound 84, ({2-Bromo-4-[5-(4-methanesulfonyl-phenyl)-2-oxo-2,3-dihydro-imidazol-1-ylmethyl]-phenyl}-difluoro-methyl)-phosphonic acid mono-(3-hexadecyloxy-propyl) ester] was tested, and the IC50 was 2500 to 25000 nM. Compound `O=C(O)c1ccc(Cn2ccn(Cc3ccc(C(F)(F)P(=O)(O)O)c(Br)c3)c2=O)cc1` [Compound 85, 4-{3-[3-Bromo-4-(difluoro-phosphono-methyl)-benzyl]-2-oxo-2,3-dihydro-imidazol-1-ylmethyl}-benzoic acid] has an IC50 of 250 to 2500 nM. In the case of `COC(=O)c1ccc(Cn2c(=O)n(Cc3ccc(C(F)(F)P(=O)(O)O)c(Br)c3)c3ccccc32)cc1` [Compound 86, 4-{3-[3-Bromo-4-(difluoro-phosphono-methyl)-benzyl]-2-oxo-2,3-dihydro-benzoimidazol-1-ylmethyl}-benzoic acid methyl ester], the IC50 is reported as 250 to 2500 nM. `O=c1[nH]ccn1Cc1ccc(C(F)(F)P(=O)(O)O)c(Br)c1` [Compound 87, {[2-Bromo-4-(2-oxo-2,3-dihydro-imidazol-1-ylmethyl)-phenyl]-difluoro-methyl}-phosphonic acid] showed an IC50 of 2500 to 25000 nM. With `O=c1n(Cc2ccc(C(F)(F)P(=O)(O)O)c(Br)c2)ccn1Cc1ccc(C(F)(F)P(=O)(O)O)c(Br)c1` [Compound 88, [(2-Bromo-4-{3-[3-bromo-4-(difluoro-phosphono-methyl)-benzyl]-2-oxo-2,3-dihydro-imidazol-1-ylmethyl}-phenyl)-difluoro-methyl]-phosphonic acid] the IC50 was < 99 nM. `O=C1N(Cc2ccccc2)CCN1Cc1ccc(C(F)(F)P(=O)(O)O)c(Br)c1` [Compound 89, {[4-(3-Benzyl-2-oxo-imidazolidin-1-ylmethyl)-2-bromo-phenyl]-difluoro-methyl}-phosphonic acid] was tested, and the IC50 was 250 to 2500 nM.
